# Tests used:
# [1] = biological target: T1, Mtb alanine racemase (Alr) (Mycobacterium tuberculosis, UniProt P9WQA9)
# [2] = biological target: T1, Mtb alanine racemase (Alr); experiment: […]; Michaelis-Menten kinetics; format: biochemical
# T1 sequence (P9WQA9 whole entry): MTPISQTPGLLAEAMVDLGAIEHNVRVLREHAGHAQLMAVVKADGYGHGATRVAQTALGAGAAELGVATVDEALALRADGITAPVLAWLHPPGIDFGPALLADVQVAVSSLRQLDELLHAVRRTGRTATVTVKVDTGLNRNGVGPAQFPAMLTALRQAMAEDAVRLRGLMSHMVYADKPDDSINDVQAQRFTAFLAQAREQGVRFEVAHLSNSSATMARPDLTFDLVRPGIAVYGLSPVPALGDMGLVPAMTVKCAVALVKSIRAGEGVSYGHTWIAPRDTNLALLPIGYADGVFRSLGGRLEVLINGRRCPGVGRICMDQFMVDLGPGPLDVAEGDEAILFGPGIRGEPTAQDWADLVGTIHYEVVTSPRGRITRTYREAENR
compound,measurement,setting,value
C[C@@H](N)C(=O)O [D-alanine],Michaelis-Menten kinetics of purified Alr in the coupled NADH fluorescence assay,[1],Varying the concentration of D-alanine yielded conventional Michaelis–Menten kinetics for Alr
CCOC(=O)[C@H](CCc1ccccc1)N[C@H]1CCc2ccccc2N(CC(=O)O)C1=O [benazepril],IC50,[2],300 µM
